Experiments:
Test in all cases: relative viability (nuclei count vs DMSO), 5 days (fraction); higher = more cells survive
Axitinib + Decitabine = compound: CNC(=O)c1ccccc1Sc1ccc2c(/C=C/c3ccccn3)n[nH]c2c1 [Axitinib] + Nc1ncn([C@H]2C[C@H](O)[C@@H](CO)O2)c(=O)n1 [Decitabine] (partner 2 µM)
Procedure, shortened: (§1)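 A single step with final 0.05% Triton X-100, 1% formaldehyde and 1 ug/ml Hoechst fixed the cells and stained nuclei 5 days after treatment. Lung cancer cell lines in 1536-well plates had been treated by pin tool the day after seeding with one drug alone or a fixed anchor-drug dose plus five library-drug doses (not always all listed) in √10 steps, and nuclei were counted on 4× images. Relative viability is the ratio of nuclei in treated wells to nuclei in vehicle wells, taken as the median of duplicate plates.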

[1] = compound: CC1=CC=C(C=C1)C(=O)CN2C3=C(CCCC3)SC2=N [Pifithrin_alpha] + CC(C)C[C@H](NC(=O)[C@H](Cc1ccccc1)NC(=O)c1cnccn1)B(O)O [Bortezomib] (partner 0.002 µM)
Procedure, shortened: as §1

[2] = compound: CC1=CC=C(C=C1)C(=O)CN2C3=C(CCCC3)SC2=N [Pifithrin_alpha] + Cc1cc(Nc2cc(N3CCN(C)CC3)nc(Sc3ccc(NC(=O)C4CC4)cc3)n2)n[nH]1 [Tozasertib] (partner 0.1 µM)
Procedure, shortened: as §1

Axitinib + Phenformin = compound: CNC(=O)c1ccccc1Sc1ccc2c(/C=C/c3ccccn3)n[nH]c2c1 [Axitinib] + N=C(N)NC(=N)NCCc1ccccc1 [Phenformin] (partner 250 µM)
Procedure, shortened: as §1

Cell Line	relative viability (Axitinib + Decitabine; first compound 0.005 µM)	relative viability (Axitinib + Decitabine; first compound 0.01581 µM)	relative viability (Axitinib + Decitabine; first compound 0.05 µM)	relative viability (Axitinib + Decitabine; first compound 0.1581 µM)	relative viability (Axitinib + Decitabine; first compound 0.5 µM)	relative viability ([1]; first compound 1 µM)	relative viability ([1]; first compound 3.162 µM)	relative viability ([1]; first compound 10 µM)	relative viability ([1]; first compound 31.62 µM)	relative viability ([1]; first compound 100 µM)	relative viability ([2]; first compound 1 µM)	relative viability ([2]; first compound 3.162 µM)	relative viability ([2]; first compound 10 µM)	relative viability ([2]; first compound 31.62 µM)	relative viability ([2]; first compound 100 µM)	relative viability (Axitinib + Phenformin; first compound 0.005 µM)	relative viability (Axitinib + Phenformin; first compound 0.01581 µM)	relative viability (Axitinib + Phenformin; first compound 0.05 µM)	relative viability (Axitinib + Phenformin; first compound 0.1581 µM)	relative viability (Axitinib + Phenformin; first compound 0.5 µM)
201T	0.866	0.803	0.851	0.872	0.878	1.05	1.07	1.16	0.794	0.913	0.991	0.679	0.729	0.57	0.638	0.475	0.412	0.449	0.446	0.399
A549	0.324	0.296	0.338	0.243	0.324											0.204	0.198	0.217	0.149	0.216
CAL-12T						0.962	1.09	1.02	0.666	0.809	0.348	0.22	0.234		0.226	0.567	0.53	0.559	0.63	0.504
Calu-6						1.07	1.04	0.899	0.569	0.881										
EBC-1						0.512	0.411	0.437	0.354	0.287										
IA-LM						0.984	0.415	0.281	0.33	0.339										
LK-2	0.262	0.245	0.298	0.347	0.222						0.188	0.134	0.146		0.152	0.674	0.202	0.481	0.353	0.293
NCI-H358	0.226	0.222	0.221	0.214	0.198						0.112	0.0941	0.101	0.104	0.0923	0.344	0.32	0.332	0.309	0.388
NCI-H522	0.639	0.725	0.625	0.63	0.624						0.585	0.55	0.592	0.522	0.593	0.537	0.669	0.698	0.555	0.658
NCI-H1299						1.08	1.02	1.02	0.896	1.03										
NCI-H1395	0.795	0.681	0.622	0.746	0.751						0.642	0.755	0.657	0.627	0.688	0.485	0.382	0.465	0.441	0.45
NCI-H1563						0.732	0.697	0.755	0.733	0.78						0.778	0.654	0.625	0.616	0.667
NCI-H1623											0.42	0.528	0.432	0.358	0.349	0.669	0.585	0.315	0.613	0.6
NCI-H1648	0.537	0.574	0.568	0.519	0.478						0.592	0.513	0.393	0.47	0.421					
NCI-H1703						0.416	0.344	0.368	0.288	0.279										
NCI-H1792	0.527	0.508	0.429	0.533	0.575	0.719	0.847	0.666	0.582	0.795						0.323			0.304	0.186
NCI-H1793	0.595	0.55	0.478	0.413	0.559							0.272	0.277	0.276	0.218	0.393	0.4	0.415	0.358	0.328
NCI-H1944	0.47	0.428	0.452	0.397	0.455						0.236	0.225	0.23	0.191	0.19	0.204	0.199	0.206	0.191	0.189
NCI-H2170	0.483	0.439	0.411	0.48	0.488						0.624	0.704	0.602	0.541	0.462	0.435	0.412	0.468	0.415	0.5
NCI-H2228						0.919	1.03	0.926	0.86	0.722	0.247	0.147	0.209	0.154	0.135	0.324	0.326	0.412	0.36	0.269
NCI-H2342	0.717	0.68	0.769	0.658	0.794						0.514	0.486	0.494	0.453	0.454	0.648	0.636	0.636	0.591	0.53
SK-MES-1	0.324	0.361	0.364	0.348	0.449						0.805	0.749	0.613	0.392	0.404	0.65	0.653	0.654	0.631	0.738
SW 900	0.428		0.477	0.4	0.602						0.53	0.358	0.372	0.27	0.364	0.577	0.411	0.464	0.46	0.803
